Data on one compound can be found in patent US20250312299A1, “COMPOSITION COMPRISING THIOUREA DERIVATIVE FOR PREVENTION OR TREATMENT OF FIBROTIC DISEASE” (THERASID BIOSCIENCE INC., priority 2022, published 2025).

The structures appear in SMILES notation.

Holding throughout (type): cell-based
Series [1] has as its system fibronectin. Briefly: Western blot protein expression of fibronectin in TGF-β treated LX2 cells. Conditions: TGF-β 10 ng/ml + compound 20 μM, 48 hours, FIGS. 10 to 12. An excerpt:
(§1) In order to confirm the inhibitory effect of the compound of the present invention on the protein expression of fibrosis-related markers, the protein expression of collagen type 1 (type 1 collagen; COL1A1) and fibronectin, which are fibrosis-related markers, and HSP60 was confirmed through Western blot analysis. As a control group, TGF-β (transforming growth factor-β) was used. TGF-β is known to promote the production of extracellular matrix such as collagen and promote fibrosis of tissues.
(§2) LX2 cells were seeded at 7.6×10^5 per dish in a 60 φ dish, cultured for 24 hours in a 37° C., 5% CO2 incubator, and then treated with TGF-β at a concentration of 10 ng/ml and the compound of the present invention (TB-840) at a concentration of 20 μM, and cultured for 48 hours. After collecting the cultured cells, the cell pellet was spun down using a centrifuge (13,000 rpm, 5 min, 4° C.) and then lysed by adding lysis buffer with vortexing for 1 hour at 10-minute intervals, and then cell membrane components, etc. were removed using a centrifuge (13,000 rpm, 20 min, 4° C.). The sample was prepared by measuring according to the protocol using a BCA protein assay kit. […] Thereafter, the primary antibody was reacted overnight, and then the secondary antibody was bound, and the protein expression of COL1A1 and fibronectin was measured using an Azure biosystems (C300) device.

For series [2], the system named is fibronectin. Briefly: Western blot protein expression of fibronectin in TGF-β treated HK-2 cells. As to conditions: TGF-β 10 ng/ml + compound 20 μM, 48 hours, FIGS. 16 to 18.
Text: as §1
as §2, with “HK-2” for “LX2”, “1×10^6” for “7.6×10^5”

For series [3], the system named is fibronectin. Put plainly: RT-qPCR gene expression of fibronectin in TGF-β treated HK-2 cells. Conditions: TGF-β 10 ng/ml + compound 20 μM, 24 hours, FIG. 9. As to the method: (§3) In order to confirm the inhibitory effect of the compound of the present invention on the gene expression of fibrosis-related markers, the gene expression of collagen type 1 (type 1 collagen; COL1A1) and fibronectin, which are fibrosis-related markers, was confirmed through RT-qPCR analysis. As a control group, TGF-β (transforming growth factor-β) was used. TGF-β is known to promote the production of extracellular matrix such as collagen and promote fibrosis of tissues.
(§4) HK-2 cells were seeded at 2×10^5 per well in a 6 well plate, cultured for 24 hours in a 37° C., 5% CO2 incubator, and then treated with TGF-β at a concentration of 10 ng/ml and the compound of the present invention (TB-840) at a concentration of 20 μM, and cultured for 24 hours. After culturing for 24 hours, the cells were washed twice with phosphate buffered saline (PBS), and then RNA extraction was performed using a RNA-spin™ total RNA extraction kit (iNtRON Biotechnology, Cat no. 17211) protocol. Thereafter, the RNA concentration was measured using a Nanodrop device, and cDNA was synthesized using a Maxime™ RT PreMix (iNtRON Biotechnology, Cat no. 25081) and a MiniAmp™ Termal Cycler device. Thereafter, the gene expression levels of COL1A1 and fibronectin were measured using a QuantStudio 5 Real-Time PCR device.

The subject of series [4] is collagen type 1 (COL1A1). Put plainly: RT-qPCR gene expression of COL1A1 in TGF-β treated LX2 cells. As to conditions: TGF-β 10 ng/ml + compound 20 μM, 24 hours, FIG. 4. As to the method: as §3
as §4, with “LX2” for “HK-2”, “3.5×10^5” for “2×10^5”

The subject of series [5] is HSP60. Briefly: Western blot protein expression of HSP60 in TGF-β treated LX2 cells. Conditions: TGF-β 10 ng/ml + compound 20 μM, 48 hours, FIGS. 10 to 12.
Text: as §1, §2

Series [6] concerns collagen type 1 (COL1A1). Briefly: Western blot protein expression of COL1A1 in TGF-β treated LX2 cells. Conditions: TGF-β 10 ng/ml + compound 20 μM, 48 hours, FIGS. 10 to 12.
Text: as §1, §2

The subject of series [7] is fibronectin. Put plainly: RT-qPCR gene expression of fibronectin in TGF-β treated A549 cells. Conditions: TGF-β 10 ng/ml + compound 20 μM, 24 hours, FIG. 7. As to the method:
as §3
as §4, with “A549” for “HK-2”, “2.5×10^5” for “2×10^5”

Another series deals with A549 cells. Briefly: CCK-8 cell viability assay, lung cell line (A549). As to conditions: A549 lung carcinoma cells, 20 μM, 24 hours, CCK-8, FIG. 2. Here is the method:
A549 cells, which are lung cells (lung carcinoma cells), were seeded at 1.5×10^4 per well in a 96 well plate, cultured for 24 hours in a 37° C., 5% CO2 incubator, and then treated with the compound of the present invention (TB-840) at a concentration of 20 μM for 24 hours. After culturing for 24 hours, the cells were treated with 10 μl of CCK-8 solution for 2 hours.

Series [8] relates to fibronectin. Briefly: Western blot protein expression of fibronectin in TGF-β treated A549 cells. Conditions: TGF-β 10 ng/ml + compound 20 μM, 24 hours, FIGS. 13 to 15.
Text: as §1
as §2, with “A549” for “LX2”, “2.5×10^5” for “7.6×10^5”, “well” for “dish”, “6 well plate,” for “60 φ dish,”, “24” for “48”

The subject of series [9] is collagen type 1 (COL1A1). Briefly: RT-qPCR gene expression of COL1A1 in TGF-β treated A549 cells. Conditions: TGF-β 10 ng/ml + compound 20 μM, 24 hours, FIG. 6. Here is the method:
as §3
as §4, with “A549” for “HK-2”, “2.5×10^5” for “2×10^5”

For series [10], the system named is HSP60. Briefly: Western blot protein expression of HSP60 in TGF-β treated HK-2 cells. As to conditions: TGF-β 10 ng/ml + compound 20 μM, 48 hours, FIGS. 16 to 18.
Text: as §1
as §2, with “HK-2” for “LX2”, “1×10^6” for “7.6×10^5”

The next series relates to HK-2 cells. Put plainly: CCK-8 cell viability assay, kidney cell line (HK-2). Conditions: HK-2 kidney proximal tubular cells, 20 μM, 24 hours, CCK-8, FIG. 3. As to the method:
HK-2 cells, which are kidney cells (proximal tubular cells), were seeded at 1×10^4 per well in a 96 well plate, cultured for 24 hours in a 37° C., 5% CO2 incubator, and then treated with the compound of the present invention (TB-840) at a concentration of 20 μM for 24 hours. After culturing for 24 hours, the cells were treated with 10 μl of CCK-8 solution for 2 hours.

The test system of series [11] is HSP60. Briefly: Western blot protein expression of HSP60 in TGF-β treated A549 cells. As to conditions: TGF-β 10 ng/ml + compound 20 μM, 24 hours, FIGS. 13 to 15.
Text: as §1
as §2, with “A549” for “LX2”, “2.5×10^5” for “7.6×10^5”, “well” for “dish”, “6 well plate,” for “60 φ dish,”, “24” for “48”

Series [12] concerns fibronectin. Briefly: RT-qPCR gene expression of fibronectin in TGF-β treated LX2 cells. As to conditions: TGF-β 10 ng/ml + compound 20 μM, 24 hours, FIG. 5. As to the method: as §3
as §4, with “LX2” for “HK-2”, “3.5×10^5” for “2×10^5”

In series [13] the test system is collagen type 1 (COL1A1). Put plainly: RT-qPCR gene expression of COL1A1 in TGF-β treated HK-2 cells. Conditions: TGF-β 10 ng/ml + compound 20 μM, 24 hours, FIG. 8. Here is the method: as §3, §4
In series [14] the test system is collagen type 1 (COL1A1). Briefly: Western blot protein expression of COL1A1 in TGF-β treated A549 cells. As to conditions: TGF-β 10 ng/ml + compound 20 μM, 24 hours, FIGS. 13 to 15.
Text: as §1
as §2, with “A549” for “LX2”, “2.5×10^5” for “7.6×10^5”, “well” for “dish”, “6 well plate,” for “60 φ dish,”, “24” for “48”

The test system of the next series is LX2 cells. Briefly: CCK-8 cell viability assay, liver cell line (LX2). Conditions: LX2 liver (stellate) cells, 20 μM, 24 hours, CCK-8, FIG. 1. As to the method: LX2 cells, which are liver cells (stellate cells), were seeded at 1×10^4 per well in a 96 well plate, cultured for 24 hours in a 37° C., 5% CO2 incubator, and then treated with the compound of the present invention (TB-840) at a concentration of 20 μM for 24 hours. After culturing for 24 hours, the cells were treated with 10 μl of CCK-8 solution for 2 hours.

Series [15] deals with collagen type 1 (COL1A1). Put plainly: Western blot protein expression of COL1A1 in TGF-β treated HK-2 cells. Conditions: TGF-β 10 ng/ml + compound 20 μM, 48 hours, FIGS. 16 to 18.
Text: as §1
as §2, with “HK-2” for “LX2”, “1×10^6” for “7.6×10^5”

Regarding `CNC(=S)NCc1ccc(OCc2ccccc2)cc1` [TB-840, 1-(4-benzyloxy-benzyl)-3-methyl-thiourea], the “protein expression of fibronectin compared to the group treated with TGF-β” value in the series with fibronectin [1], with fibronectin [2] and with fibronectin [8] was “reduced” in each case. The “gene expression of fibronectin compared to the group treated with TGF-β” value in the series with fibronectin [3], with fibronectin [7] and with fibronectin [12] was “reduced” in each case. The “gene expression of COL1A1 compared to the group treated with TGF-β” value in the series with collagen type 1 (COL1A1) [4], with collagen type 1 (COL1A1) [9] and in the series with collagen type 1 (COL1A1) [13] was “reduced” throughout. For the same compound, the “protein expression of HSP60” value with HSP60 [5], in the series with HSP60 [10] and in the series on HSP60 [11] was “no change” throughout. The “protein expression of COL1A1 compared to the group treated with TGF-β” value in the series on collagen type 1 (COL1A1) [6], in the series with collagen type 1 (COL1A1) [14] and in the series on collagen type 1 (COL1A1) [15] was “reduced” in each case. For the same compound, the cell viability in the series with A549 cells, with HK-2 cells and in the series on LX2 cells was about 100% in each case.
